Experimental data reported in patent US10351566B2, “Therapeutic compounds for pain and synthesis thereof” (priority 2015, dated 2019).
Read-outs that look alike come from different tables or passages of the source. Marks after values point to notes of the source that are not given here.

Legend:
[1] = in vitro; assay type: in vitro ADME; conditions: human, Caco-2
Procedure: Formula 1 was evaluated for cellular permeability using Caco-2 cell monolayers. Both the apical-to-basolateral (A-B) and basolateral-to-apical (B-A) bidirectional permeability and efflux ratios were evaluated in the assay.

[2] = in vivo; design: species or system mice; conditions: for HL_Lambda_z / Cl_F_obs / Vz_F_obs / AUC(0-t) / Cmax / Tmax / AUC(0-inf): Mean; for Kp / AUC(0-t) / Cmax / Tmax / AUC(0-inf): mouse, in vivo; for Kp: po, 50 mg/kg, mice, oral 50 mg/kg, 5 min to 8 h; for AUC(0-inf): read-out: AUCINF_obs
Procedure: Tissue distribution studies were conducted by administration of the compound to mice at a dose of 50 mg/kg orally and intravenously. Plasma and tissue samples were collected at various times from 5 min to 8 h. The tissue-to-plasma concentration ratios measured after oral dosing were: 0.6 (range: 0.3-1.1, brain), 3.2 (range: 1.9-5.0, spinal cord), 6.5 (range: 0.9-10.3, liver), 24.0 (range: 5.1-59.9, lung), 6.6 (range: 1.2-14.9, heart), 16.9 (range: 4.3-26.8, kidney), 77.5 (range: 11.5-341, spleen), 29.2 (range: 6.3-50.2, cecum), 67.4 (range: 11.6-326, colon), 5.2 (range: 2.1-8.0, testes). The concentration-time profiles of the compound in these tissues generally followed those in plasma. The tissue-to-plasma concentration ratios in these selected tissues are generally within the normal ranges of the marketed drugs.
There are complex equilibria between the compound concentrations in blood, CSF and spinal cord. A high concentration in the CSF would yield a large concentration in the spinal cord. Since Formula 1 is a Pgp substrate and highly tissue-bound, its higher concentrations in the spinal cord tissue compared to the brain tissue are not surprising (Table 2).

[3] = in vitro; assay type: in vitro ADME; conditions: 1 μM; for microsomal CLint: read-out: intrinsic clearance (CLint)
Procedure: Metabolic stability studies in mouse, rat and human liver microsomes were performed at a compound concentration of 1 μM.

[4] = tested on: selected targets (including some important cardiovascular safety-related targets); conditions: at 10 μM
Procedure: A Cerep activity screen was conducted and was negative against the selected targets at 10 μM (including some important cardiovascular safety-related targets) for Formula 1.

[5] = assay type: in vivo; conditions: mice, 10 mg/kg IP
Procedure: Mice received a 10 mg/kg IP dose of Formula 1. The animals were placed in the open field apparatus after 30 minutes (box of 0.5×0.5×0.5 m length, width and height) for a period of 5 min. The animals' walking distance and speed were evaluated and compared to the vehicle-treated group.

[6] = tested on: Taxol-induced neuropathic pain; test: Taxol-induced neuropathic pain in mice, SC administration; assay type: in vivo
Procedure: Study outline in brief: Animals were dosed daily with Taxol for a period of 8 consecutive days (Day 0 to Day 7). On study day 8, prior to drug dosing, the decrease in withdrawal force (tactile allodynia) was verified by applying the von Frey test. After assigning the animals to their treatment groups, the animals were treated daily for a period of 5 days with either vehicle or Formula 1 at different doses. Gabapentin at a dose of 150 mg/kg was dosed only on days of testing (day 8 and day 14).
Response to heat stimuli was assessed using the hotplate apparatus set at 50ΥC. […] At baseline prior to Taxol dosing, the animals' response time to heat was 28.10±1.60 sec (vehicle-treated group). […] However, it is interesting to note that the beneficial activity of Formula 1 on heat hyperalgesia was more noticeable on study day 14, following repeated daily dosing of the compound, than on study day 8 following a single dose (Table 6).

[7] = Brain, second block of the table, route not given
[8] = Plasma, second block of the table, route not given
[9] = Spinal Cord, second block of the table, route not given
[10] = 30 minutes after dosing, 5 min in open field

CC(C)(C)C(=O)O[C@@H]1[C@@H]2[C@H]3C[C@H](C[C@@H]1N3Cc1ccccn1)CN2C(=O)CC(F)(F)F (relative stereo) [Formula 1, (2S*,3S*,3aS*,6R*,7aR*)-1-(pyridin-2-ylmethyl)-4-(3,3,3-trifluoropropanoyl)octahydro-1H-2,6-methanopyrrolo[3,2-b]pyridin-3-yl pivalate]
efflux ratio [1]: 10.4
Papp A→B ([1]; apical-to-basolateral): 6.6 ×10⁻⁶ cm/s
Papp B→A ([1]; basolateral-to-apical): 68.3 ×10⁻⁶ cm/s
HL_Lambda_z [2, 7]: 0.74 h
Cl_F_obs ([2]; Plasma, SC): 120.292 mL/min/kg
HL_Lambda_z ([2]; Plasma, SC): 0.37 h
Vz_F_obs ([2]; Plasma, SC): 3.84783 L/kg
Cl_F_obs [2, 8]: 672.2167 mL/min/kg
HL_Lambda_z [2, 8]: 1.20 h
Vz_F_obs [2, 8]: 72.1615 L/kg
HL_Lambda_z ([2]; Spinal Cord, SC): 0.53 h
HL_Lambda_z [2, 9]: 1.56 h
Kp ([2]; male, read-out: tissue-to-plasma concentration ratio, testes): 5.2
Kp ([2]; male, read-out: tissue-to-plasma concentration ratio, testes, range): 2.1 to 8
AUC(0-t) [2, 7]: 2770 ng·h/mL
Cmax [2, 7]: 6750 ng/mL
Tmax [2, 7]: 4.8 min
AUC(0-t) [2, 8]: 2590 ng·h/mL
Cmax [2, 8]: 3080 ng/mL
AUC(0-inf) [2, 8]: 2610 ng·h/mL
AUC(0-t) [2, 9]: 15500 ng·h/mL
Cmax [2, 9]: 30000 ng/mL
Kp ([2]; read-out: tissue-to-plasma concentration ratio, brain): 0.6
Kp ([2]; read-out: tissue-to-plasma concentration ratio, brain, range): 0.3 to 1.1
Kp ([2]; read-out: tissue-to-plasma concentration ratio, cecum): 29.2
Kp ([2]; read-out: tissue-to-plasma concentration ratio, cecum, range): 6.3 to 50.2
Kp ([2]; read-out: tissue-to-plasma concentration ratio, colon): 67.4
Kp ([2]; read-out: tissue-to-plasma concentration ratio, colon, range): 11.6 to 326
Kp ([2]; read-out: tissue-to-plasma concentration ratio, heart): 6.6
Kp ([2]; read-out: tissue-to-plasma concentration ratio, heart, range): 1.2 to 14.9
Kp ([2]; read-out: tissue-to-plasma concentration ratio, kidney): 16.9
Kp ([2]; read-out: tissue-to-plasma concentration ratio, kidney, range): 4.3 to 26.8
Kp ([2]; read-out: tissue-to-plasma concentration ratio, liver): 6.5
Kp ([2]; read-out: tissue-to-plasma concentration ratio, liver, range): 0.9 to 10.3
Kp ([2]; read-out: tissue-to-plasma concentration ratio, lung): 24
Kp ([2]; read-out: tissue-to-plasma concentration ratio, lung, range): 5.1 to 59.9
Kp ([2]; read-out: tissue-to-plasma concentration ratio, spinal cord): 3.2
Kp ([2]; read-out: tissue-to-plasma concentration ratio, spinal cord, range): 1.9 to 5
Kp ([2]; read-out: tissue-to-plasma concentration ratio, spleen): 77.5
Kp ([2]; read-out: tissue-to-plasma concentration ratio, spleen, range): 11.5 to 341
AUC(0-t) ([2]; sc, Brain): 790 ng·h/mL
Cmax ([2]; sc, Brain): 1380 ng/mL
AUC(0-t) ([2]; sc, Plasma): 1380 ng·h/mL
Cmax ([2]; sc, Plasma): 1900 ng/mL
AUC(0-t) ([2]; sc, Spinal Cord): 6210 ng·h/mL
Cmax ([2]; sc, Spinal Cord): 11900 ng/mL
Tmax ([2]; Plasma, SC): 15 min
AUC(0-inf) ([2]; Plasma, SC): 1390 ng·h/mL
half-life ([3]; human liver microsomes): 8 min
microsomal CLint ([3]; human liver microsomes): 174 µL/min/mg
half-life ([3]; mouse liver microsomes): < 4 min
microsomal CLint ([3]; mouse liver microsomes): > 346 µL/min/mg
half-life ([3]; rat liver microsomes): < 4 min
microsomal CLint ([3]; rat liver microsomes): > 346 µL/min/mg
Cerep activity screen result [4]: negative
walking distance and speed vs. vehicle-treated group [5]: No difference was found
Distance [5, 10]: 1.94 ± 0.89 m
Time spent in the center of the field [5, 10]: 34.82 ± 23.53 s
response time to heat (50° C.), Mean ([6]; SC 1 mg/kg, Day 0 Pre-Taxol): 28.8 s
response time to heat (50° C.), Mean ([6]; SC 1 mg/kg, Day 8, 1 h): 11.9 s
response time to heat (50° C.), Mean ([6]; SC 1 mg/kg, Day 8, 2 h): 22.8* sec
response time to heat (50° C.), Mean ([6]; SC 1 mg/kg, Day 8, 4 h): 18.9* sec
response time to heat (50° C.), Mean ([6]; SC 1 mg/kg, Day 8, 6 h): 18.5* sec
response time to heat (50° C.), Mean ([6]; SC 1 mg/kg, Day 8 Pre-dosing): 11.4 s
response time to heat (50° C.), Mean ([6]; SC 1 mg/kg, Day 14, 1 h): 14.9* sec
response time to heat (50° C.), Mean ([6]; SC 1 mg/kg, Day 14, 2 h): 24.6* sec
response time to heat (50° C.), Mean ([6]; SC 1 mg/kg, Day 14, 4 h): 24.2* sec
response time to heat (50° C.), Mean ([6]; SC 1 mg/kg, Day 14, 6 h): 22.0* sec
response time to heat (50° C.), Mean ([6]; SC 1 mg/kg, Day 14 Pre-dosing): 15.8* sec
response time to heat (50° C.), Mean ([6]; SC 1 mg/kg, Day 17, No dosing): 12.4 s
response time to heat (50° C.), Mean ([6]; SC 3 mg/kg, Day 0 Pre-Taxol): 28.6 s
response time to heat (50° C.), Mean ([6]; SC 3 mg/kg, Day 8, 1 h): 15.7 s
response time to heat (50° C.), Mean ([6]; SC 3 mg/kg, Day 8, 2 h): 19.4 s
response time to heat (50° C.), Mean ([6]; SC 3 mg/kg, Day 8, 4 h): 14.8 s
response time to heat (50° C.), Mean ([6]; SC 3 mg/kg, Day 8, 6 h): 14.1 s
response time to heat (50° C.), Mean ([6]; SC 3 mg/kg, Day 8 Pre-dosing): 12.2 s
response time to heat (50° C.), Mean ([6]; SC 3 mg/kg, Day 14, 1 h): 18.4* sec
response time to heat (50° C.), Mean ([6]; SC 3 mg/kg, Day 14, 2 h): 24.8* sec
response time to heat (50° C.), Mean ([6]; SC 3 mg/kg, Day 14, 4 h): 23.6* sec
response time to heat (50° C.), Mean ([6]; SC 3 mg/kg, Day 14, 6 h): 20.6* sec
response time to heat (50° C.), Mean ([6]; SC 3 mg/kg, Day 14 Pre-dosing): 19.7 s
response time to heat (50° C.), Mean ([6]; SC 3 mg/kg, Day 17, No dosing): 12.2 s
response time to heat (50° C.), Mean ([6]; SC 10 mg/kg, Day 0 Pre-Taxol): 28.5 s
response time to heat (50° C.), Mean ([6]; SC 10 mg/kg, Day 8, 1 h): 15.7 s
response time to heat (50° C.), Mean ([6]; SC 10 mg/kg, Day 8, 2 h): 17.8* sec
response time to heat (50° C.), Mean ([6]; SC 10 mg/kg, Day 8, 4 h): 15.8 s
response time to heat (50° C.), Mean ([6]; SC 10 mg/kg, Day 8, 6 h): 14.3 s
response time to heat (50° C.), Mean ([6]; SC 10 mg/kg, Day 8 Pre-dosing): 11.2 s
response time to heat (50° C.), Mean ([6]; SC 10 mg/kg, Day 14, 1 h): 18.5* sec
response time to heat (50° C.), Mean ([6]; SC 10 mg/kg, Day 14, 2 h): 18.7* sec
response time to heat (50° C.), Mean ([6]; SC 10 mg/kg, Day 14, 4 h): 19.3* sec
response time to heat (50° C.), Mean ([6]; SC 10 mg/kg, Day 14, 6 h): 15.5* sec
response time to heat (50° C.), Mean ([6]; SC 10 mg/kg, Day 14 Pre-dosing): 14.5 s
response time to heat (50° C.), Mean ([6]; SC 10 mg/kg, Day 17, No dosing): 10.4 s
response time to heat (hotplate 50° C.) ([6]; Taxol mice, SC, 10 mg/kg, 3 mg/kg and 1 mg/kg): active in increasing the response time
analgesic activity (withdrawal force, von Frey) ([6]; Taxol mice, SC, dose as low as 1 mg/kg): profound analgesic activity
Dose of maximum activity ([6]; Taxol model, SC, mice): 1 mg/kg
Duration of activity at maximum effect ([6]; Taxol model, SC, mice): 3 days
Level of activity (% of maximum effect-baseline) ([6]; Taxol model, SC, mice): 100%
